# Patent US20080318949A1, “Pyrazolopyrimidinone Derivatives, Their Preparation And Their Use” (Topharman Shanghai Co., Ltd, priority 2005, published 2008)
# Target: T1, PDE5 from human platelets (Homo sapiens, UniProt O76074)
# T1 construct: from tissue; host or cells: human platelets
# Assay: PDE5 inhibitory activity test (scintillation proximity assay)
# Format: biochemical
# Settings: PDE5 from human platelets
# Text: The PDE5 and PDE3 were isolated form human platelets, while the PDE6 was isolated form bovine retinas. The enzyme inhibitory activity test conducted immediately after the enzymes had been isolated, using a scintillation proximity assay for the direct detection of AMP/GMP by the TRKQ7100 and TRKQ7090 kit. In summary, the effect of PDE inhibitors was investigated by assaying a fixed amount of enzyme in the presence of varying inhibitor concentrations and low substrate. The final assay volume was made up to 100 μl with 10 μl assay buffer (50 mM Tris/HCl PH 7.5, 8.3 mM MgCl2, 1.7 mM EGTA), and water. Reactions were initiated with enzyme, incubate for 30 minutes at 30° C. and terminated with 50 μl yttrium silicate SPA beads suspension containing zinc sulphate. Shook for 20 minutes and settled for 30 minutes in the dark, then counted on a BECKMAN LS6500 MULTI-PURPOSE SCINTILLATION COUNTER. The IC50 value for the compounds according the present invention was calculated according the counts.
# According to the above-mentioned method, the inhibitory activities of some compounds of formula IA and IB according to the invention against PDE5 from human platelets were determined.
row,IC50 [nM],Compound
1,22.2,"1-methyl-5-{2-methoxyethoxy-5-[bis(2-hydroxyethyl)amidosulfonyl]phenyl}-3-n-propyl-1,6-dihydro-7H-pyrazolo[4,3-d]pyrimidin-7-one [Example 10]"
2,0.5,"CCOc1ccc(S(=O)(=O)N(CCOC(=O)c2cccnc2)CCOC(=O)c2cccnc2)cc1-c1nc2c(CC)nn(C)c2c(=O)[nH]1 [Example 7, 1-methyl-5-{2-ethoxy-5-[bis(2-nicotinoyloxyethyl)amidosulfonyl]phenyl}-3-ethyl-1,6-dihydro-7H-pyrazolo[4,3-d]pyrimidin-7-one]"
3,2.14,CCOc1ccc(S(=O)(=O)N(CCO)CCO)cc1-c1nc2c(CC)nn(C)c2c(=O)[nH]1 [Example 8]
4,38.1,"CCCc1nn(C)c2c(=O)[nH]c(-c3cc(S(=O)(=O)N(CCOC)CCN(CC)CC)ccc3OCC)nc12 [Example 11, 1-methyl-5-{2-ethoxy-5-[[1-(2-diethylaminoethyl)-1-(2-methoxyethyl)]amidosulfonyl]phenyl}-3-n-propyl-1,6-dihydro-7H-pyrazolo[4,3-d]pyrimidin-7-one]"
5,7.37,"CCCc1nn(C)c2c(=O)[nH]c(-c3cc(S(=O)(=O)N(CCO)CCN(CC)CC)ccc3OCC)nc12 [Example 13, 1-methyl-5-{2-ethoxy-5-[1-(2-diethylaminoethyl)-1-(2-hydroxyethyl)amidosulfonyl]phenyl}-3-n-propyl-1,6-dihydro-7H-pyrazolo[4,3-d]pyrimidin-7-one]"
6,0.862,"CCCOc1ccc(S(=O)(=O)N(CCO)CCN(CC)CC)cc1-c1nc2c(CCC)nn(C)c2c(=O)[nH]1 [Example 14, 1-methyl-5-{2-propoxy-5-[1-(2-diethylaminoethyl)-1-(2-hydroxyethyl)amidosulfonyl]phenyl}-3-n-propyl-l,6-dihydro-7H-pyrazolo[4,3-d]pyrimidin-7-one]"
7,13.4,"CCCc1nn(C)c2c(=O)[nH]c(-c3cc(S(=O)(=O)N(CCOCCO)CCN(CC)CC)ccc3OCC)nc12 [Example 16, 1-methyl-5-{2-ethoxy-5-[1-(2-diethylaminoethyl)-1-(2-hydroxyethoxyethyl)amidosulfonyl]phenyl}-3-n-propyl-1,6-dihydro-7H-pyrazolo[4,3-d]pyrimidin-7-one]"
8,8.55,CCCc1nn(C)c2c(=O)[nH]c(-c3cc(S(=O)(=O)N(CC)CCN(CC)CCOC(C)=O)ccc3OCC)nc12 [Example 17]
9,6.32,CCCc1nn(C)c2c(=O)[nH]c(-c3cc(S(=O)(=O)N(CC)CCN(CC)CCO)ccc3OCC)nc12 [Example 18]
10,0.294,"CCCc1nn(C)c2c(=O)[nH]c(-c3cc(S(=O)(=O)N(C)CCN(C)CCOCCOCCOCc4ccccc4)ccc3OCC)nc12 [Example 22, 1-methyl-5-{2-ethoxy-5-{[1-methyl-1-[2-[1-methyl-1-(2-benzyloxyethoxyethoxyethyl)]amino]ethyl]amidosulfonyl}phenyl}-3-n-propyl-1,6-dihydro-7H-pyrazolo[4,3-d]pyrimidin-7-one]"
11,0.072,"CCCOc1ccc(S(=O)(=O)N(C)CCN(C)CCO)cc1-c1nc2c(CCC)nn(C)c2c(=O)[nH]1 [Example 23, 1-methyl-5-{2-propoxy-5-{[1-methyl-1-[2-[1-methyl-1-(2-hydroxyethyl)]amino]ethyl]amidosulfonyl}phenyl}-3-n-propyl-1,6-dihydro-7H-pyrazolo[4,3-d]pyrimidin-7-one]"
12,24.9,"CCCc1nn(C)c2c(=O)[nH]c(-c3cc(S(=O)(=O)N(CCN4CCOCC4)Cc4ccccc4)ccc3OC)nc12 [Example 26, 1-methyl-5-{2-methoxy-5-[[1-benzyl-1-(2-morpholin-1-yl)ethyl]amidosulfonyl]phenyl}-3-n-propyl-1,6-dihydro-7H-pyrazolo[4,3-d]pyrimidin-7-one]"
13,0.456,"CCOc1ccc(S(=O)(=O)N(CCN2CCOCC2)Cc2ccccc2)cc1-c1nc2c(CC)nn(C)c2c(=O)[nH]1 [Example 27, 1-methyl-5-{2-ethoxy-5-[[1-benzyl-1-(2-morpholin-1-yl)ethyl]amidosulfonyl]phenyl}-3-ethyl-1,6-diydro-7H-pyrazolo[4,3-d]pyrimidin-7-one]"
14,0.681,"CCCc1nn(C)c2c(=O)[nH]c(-c3cc(S(=O)(=O)N(CCOCCO)CCN4CCOCC4)ccc3OCC)nc12 [Example 28, 1-methyl-5-{2-ethoxy-5-[[1-(2-hydroxyethoxyethyl)-1-(2-morpholin-1-yl)ethyl]amidosulfonyl]phenyl}-3-n-propyl-1,6-dihydro-7H-pyrazolo[4,3-d]pyrimidin-7-one]"
15,0.31,"CCCc1nn(C)c2c(=O)[nH]c(-c3cc(S(=O)(=O)N(CCO)CCN4CCCCC4)ccc3OCC)nc12 [Example 29, 1-methyl-5-{2-ethoxy-5-[[1-(2-hydroxyethyl)-1-(2-piperidin-1-yl)ethyl]amidosulfonyl]phenyl}-3-n-propyl-1,6-dihydro-7H-pyrazolo[4,3-d]pyrimidin-7-one]"
16,4.9,CCCOc1ccc(S(=O)(=O)N(CCCO)CCCO)cc1-c1nc2c(CCC)nn(C)c2c(=O)[nH]1 [Example 37]
17,10.5,"CCCOc1ccc(S(=O)(=O)N(CC)CCN2CCOCC2)cc1-c1nc2c(CCC)nn(C)c2c(=O)[nH]1 [Example 41, 1-methyl-5-{2-propoxy-5-[[1-ethyl-1-(2-morpholin-1-yl)ethyl]amidosulfonyl]phenyl}-3-propyl-1,6-dihydro-7H-pyrazolo[4,3-d]pyrimidin-7-one]"

row,Compound,IC50 [nM]
1,"1-methyl-5-{2-ethoxy-5-[bis(3-acetoxypropyl)amidosulfonyl]phenyl}-3-n-propyl-1,6-dihydro-7H-pyrazolo[4,3-d]pyrimidin-7-one [Example 108]",17.4
2,"1-methyl-5-{2-ethoxy-5-{[1-ethyl-1-[2-[1-ethyl-1-(2-hydroxyethoxyethyl)]amino]ethyl]amidosulfonyl}phenyl}-3-n-propyl-1,6-dihydro-7H-pyrazolo[4,3-d]pyrimidin-7-one [Example 20]",0.505
3,"1-methyl-5-{2-ethoxy-5-{[1-methyl-1-[2-[1-methyl-1-(2-hydroxyethyl)]amino]ethyl]amidosulfonyl}phenyl}-3-n-propyl-1,6-dihydro-7H-pyrazolo[4,3-d]pyrimidin-7-one [Example 21]",0.928
4,"1-methyl-5-{2-propoxy-5-[[1-(2-hydroxyethoxyethyl)-1-(2-morpholin-1-yl)ethyl]amidosulfonyl]phenyl}-3-n-propyl-1,6-dihydro-7H-pyrazolo[4,3-d]pyrimidin-7-one [Example 104]",13.1
5,"1-methyl-5-{2-propoxy-5-[[1-(2-pyridylmethyl)-1-(2-piperidin-1-yl)ethyl]amidosulfonyl]phenyl}-3-n-propyl-1,6-dihydro-7H-pyrazolo[4,3-d]pyrimidin-7-one [Example 87]",8.77
6,"1-methyl-5-{2-propoxy-5-[[1-(3-ethoxyethyl)-1-(2-hydroxyethyl)]amidosulfonyl]phenyl}-3-n-propyl-1,6-dihydro-7H-pyrazolo[4,3-d]pyrimidin-7-one [Example 116]",11.2
7,"1-methyl-5-{2-propoxy-5-[[1-benzyl-1-(2-pyrrolidin-1-yl)ethyl]amidosulfonyl]phenyl}-3-n-propyl-1,6-dihydro-7H-pyrazolo[4,3-d]pyrimidin-7-one [Example 84]",11.7
8,"1-methyl-5-{2-propoxy-5-[[1-ethyl-1-(2-acetoxyethyl)]amidosulfonyl]phenyl}-3-n-propyl-1,6-dihydro-7H-pyrazolo[4,3-d]pyrimidin-7-one [Example 94]",5.41
9,"CCOc1ccc(S(=O)(=O)N(CCOC(C)=O)CCOC(C)=O)cc1-c1nc2c(CC)nn(C)c2c(=O)[nH]1 [Example 6, 1-methyl-5-{2-ethoxy-5-[bis(2-acetoxyethyl)amidosulfonyl]phenyl}-3-ethyl-1,6-dihydro-7H-pyrazolo[4,3-d]pyrimidin-7-one]",0.74
10,"CCCc1nn(C)c2c(=O)[nH]c(-c3cc(S(=O)(=O)N(CCOC(C)=O)CCOC(C)=O)ccc3OCCOC)nc12 [Example 9, 1-methyl-5-{2-methoxyethoxy-5-[bis(2-acetoxyethyl)amidosulfonyl]phenyl}-3-n-propyl-1,6-dihydro-7H-pyrazolo[4,3-d]pyrimidin-7-one]",16.9
11,"CCCc1nn(C)c2c(=O)[nH]c(-c3cc(S(=O)(=O)N(CCOC(C)=O)CCN(CC)CC)ccc3OCC)nc12 [Example 12, 1-methyl-5-{2-ethoxy-5-[[1-(2-diethylaminoethyl)-1-(2-acetoxyethyl)]amidosulfonyl]phenyl}-3-n-propyl-1,6-dihydro-7H-pyrazolo[4,3-d]pyrimidin-7-one]",6.98
12,"CCCc1nn(C)c2c(=O)[nH]c(-c3cc(S(=O)(=O)N(CCOCCOC(C)=O)CCN(CC)CC)ccc3OCC)nc12 [Example 15, 1-methyl-5-{2-ethoxy-5-[1-(2-diethylaminoethyl)-1-(2-acetoxyethoxyethyl)amidosulfonyl]phenyl}-3-n-propyl-1,6-dihydro-7H-pyrazolo[4,3-d]pyrimidin-7-one]",10.6
13,"CCOc1ccc(S(=O)(=O)N(CC)CCN(CC)CCOC(C)=O)cc1-c1nc2c(CC)nn(CC)c2c(=O)[nH]1 [Example 19, 1-ethyl-5-{2-ethoxy-5-{[1-ethyl-1-[2-[1-ethyl-1-(2-acetoxyethyl)]amino]ethyl]amidosulfonyl}phenyl}-3-n-propyl-1,6-dihydro-7H-pyrazolo[4,3-d]pyrimidin-7-one]",4.29
